Positions of bridges follow the written chain, without caps; N, C: chain ends. Non-standard residues stand in square brackets, D forms with d. Residues, ends and D or L forms follow the SMILES beside them. Gla = N[C@@H](CC(C(=O)O)C(=O)O)C(=O)O
Experiments:
[1] = molecular target: Mas-related G-protein coupled receptor member X1 (Homo sapiens, UniProt Q96LB2); test: Activation of human MrgprX1 expressed in BAM 8-22 activated-rat KNRK cells by fura2-AM dye based calcium imaging assay; format: cell-based
Insulin receptor = Insulin receptor (Homo sapiens, UniProt P06213); test: Activation of human IR-B expressed in mouse NIH3T3 cells assessed as increase in Akt phosphorylation at Ser473 residue incubated for 30 mins by HTRF method; format: cell-based
[2] = Agonist activity at Zebra fish V2R expressed in African green monkey COS-1 cells assessed as increase in intracellular calcium response by FLIPR assay; format: cell-based; settings: Danio rerio
Vasopressin V1b receptor = molecular target: T1, Vasopressin V1b receptor (Homo sapiens, UniProt P47901); test: Agonist activity at human V1bR expressed in African green monkey COS-1 cells assessed as increase in intracellular calcium response by FLIPR assay; format: functional, cell-based
T1 sequence (P47901 whole entry): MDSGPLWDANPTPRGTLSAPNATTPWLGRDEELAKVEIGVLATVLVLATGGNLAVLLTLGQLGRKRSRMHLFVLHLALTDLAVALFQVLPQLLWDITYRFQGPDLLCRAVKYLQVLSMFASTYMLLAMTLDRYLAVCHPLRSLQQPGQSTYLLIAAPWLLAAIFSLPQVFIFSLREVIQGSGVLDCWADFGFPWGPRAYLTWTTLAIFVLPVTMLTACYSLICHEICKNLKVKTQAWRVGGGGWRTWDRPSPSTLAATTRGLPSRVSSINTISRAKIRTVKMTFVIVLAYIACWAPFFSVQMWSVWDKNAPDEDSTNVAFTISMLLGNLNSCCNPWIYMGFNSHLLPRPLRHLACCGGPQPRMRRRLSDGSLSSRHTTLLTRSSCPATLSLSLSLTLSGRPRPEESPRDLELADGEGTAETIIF

[3] = Agonist activity at Zebra fish V1a1R expressed in African green monkey COS-1 cells assessed as increase in intracellular calcium response by FLIPR assay; format: cell-based; settings: Danio rerio
[4] = Half life in iv dosed Wistar rat serum measured after 2 to 20 mins by HPLC analysis; format: ADME, organism-based; settings: time 2-20 min
[5] = molecular target: Neurotensin receptor type 1 (Rattus norvegicus, UniProt P20789); test: Agonist activity at rat NTR1 expressed in CHO cells assessed as effect on [3H] phosphoinositide accumulation using neurotensin (1 to 13 residues) as substrate by radioactive assay; format: cell-based
Neurotensin receptor type 1, sequence (P20789 whole entry, the tested form may be a part): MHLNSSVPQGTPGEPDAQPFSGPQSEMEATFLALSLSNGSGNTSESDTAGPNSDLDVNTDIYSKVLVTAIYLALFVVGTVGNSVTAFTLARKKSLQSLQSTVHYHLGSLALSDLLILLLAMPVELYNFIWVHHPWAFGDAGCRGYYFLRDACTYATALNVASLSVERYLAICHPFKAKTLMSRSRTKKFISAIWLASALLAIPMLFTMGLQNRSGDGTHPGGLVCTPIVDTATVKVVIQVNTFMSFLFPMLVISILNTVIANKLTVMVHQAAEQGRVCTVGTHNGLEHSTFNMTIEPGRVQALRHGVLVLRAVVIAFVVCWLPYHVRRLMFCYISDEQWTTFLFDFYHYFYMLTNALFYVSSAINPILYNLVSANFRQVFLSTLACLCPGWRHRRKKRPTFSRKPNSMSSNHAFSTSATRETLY

Insulin receptor, sequence (P06213 28-758 limits assumed): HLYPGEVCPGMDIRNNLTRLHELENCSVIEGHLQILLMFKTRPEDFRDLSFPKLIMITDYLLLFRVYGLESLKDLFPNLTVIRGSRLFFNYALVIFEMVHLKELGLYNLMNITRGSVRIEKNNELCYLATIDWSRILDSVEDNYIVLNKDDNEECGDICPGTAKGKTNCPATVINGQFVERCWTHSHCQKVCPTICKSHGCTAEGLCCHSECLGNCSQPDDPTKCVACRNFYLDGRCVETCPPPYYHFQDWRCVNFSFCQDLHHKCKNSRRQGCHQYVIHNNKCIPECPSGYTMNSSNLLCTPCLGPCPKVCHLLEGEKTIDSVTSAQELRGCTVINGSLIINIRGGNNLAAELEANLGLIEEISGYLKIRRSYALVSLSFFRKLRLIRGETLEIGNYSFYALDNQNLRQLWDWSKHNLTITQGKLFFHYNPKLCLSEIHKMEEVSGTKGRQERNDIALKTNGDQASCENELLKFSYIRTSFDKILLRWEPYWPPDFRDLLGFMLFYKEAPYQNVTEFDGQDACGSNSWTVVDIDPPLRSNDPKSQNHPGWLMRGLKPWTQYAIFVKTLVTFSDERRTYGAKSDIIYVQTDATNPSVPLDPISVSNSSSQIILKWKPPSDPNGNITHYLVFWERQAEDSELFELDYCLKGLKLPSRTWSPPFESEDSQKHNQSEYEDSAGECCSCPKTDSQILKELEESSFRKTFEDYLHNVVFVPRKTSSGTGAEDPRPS
Insulin receptor, sequence (P06213 763-1382 limits assumed): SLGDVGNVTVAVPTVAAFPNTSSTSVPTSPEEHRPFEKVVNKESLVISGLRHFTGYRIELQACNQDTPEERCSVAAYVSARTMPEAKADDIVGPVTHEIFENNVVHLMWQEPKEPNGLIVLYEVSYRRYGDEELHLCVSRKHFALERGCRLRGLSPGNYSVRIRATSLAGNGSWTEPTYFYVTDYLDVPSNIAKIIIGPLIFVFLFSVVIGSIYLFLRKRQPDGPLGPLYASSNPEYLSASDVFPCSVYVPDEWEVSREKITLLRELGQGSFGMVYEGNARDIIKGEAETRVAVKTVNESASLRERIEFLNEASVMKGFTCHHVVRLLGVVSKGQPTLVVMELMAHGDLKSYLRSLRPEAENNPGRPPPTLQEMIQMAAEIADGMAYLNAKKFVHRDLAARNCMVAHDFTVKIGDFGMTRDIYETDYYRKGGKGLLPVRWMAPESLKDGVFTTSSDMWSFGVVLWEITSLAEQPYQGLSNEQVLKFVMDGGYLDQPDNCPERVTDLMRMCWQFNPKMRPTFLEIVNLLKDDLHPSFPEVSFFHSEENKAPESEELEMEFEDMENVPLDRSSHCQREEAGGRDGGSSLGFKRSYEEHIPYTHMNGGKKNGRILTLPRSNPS
Mas-related G-protein coupled receptor member X1, sequence (Q96LB2 whole entry): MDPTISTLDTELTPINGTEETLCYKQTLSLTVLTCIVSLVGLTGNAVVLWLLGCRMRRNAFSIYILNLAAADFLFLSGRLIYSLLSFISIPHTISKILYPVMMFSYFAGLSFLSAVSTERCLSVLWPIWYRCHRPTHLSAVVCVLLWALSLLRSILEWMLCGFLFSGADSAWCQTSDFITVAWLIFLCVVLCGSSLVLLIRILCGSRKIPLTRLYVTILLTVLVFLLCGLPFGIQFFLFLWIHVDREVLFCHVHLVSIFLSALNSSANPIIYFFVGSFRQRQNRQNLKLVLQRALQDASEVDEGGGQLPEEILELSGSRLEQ

H-HSGILLAWSGPRNRFVRI-OH
EC50 [1]: 500 nM

CC[C@H](C)[C@H](NC(=O)[C@H](CC(C)C)NC(=O)[C@@H](Cc1ccc(O)cc1)NC(=O)[C@H](CCC(N)=O)NC(=O)[C@H](CC(N)=O)NC(=O)[C@H](Cc1ccc(O)cc1)NC(=O)[C@H](CCC(N)=O)NC(=O)[C@H](CC(C)C)NC(=O)[C@@H](Cc1ccc(O)cc1)NC(=O)[C@@H](Cc1ccc(O)cc1)NC(=O)[C@H](CCC(=O)O)NC(=O)CN)C(=O)N[C@@H](CCCNC(=N)N)C(=O)N[C@H](Cc1ccc(O)cc1)C(=O)N[C@@H](CCCCN)C(=O)N[C@@H](CO)C(=O)N[C@@H](CC(N)=O)C(N)=O
EC50 (Insulin receptor): 12 nM

H-GIV[Gla]DCCYNDCTDEKLKEYCHTLQSDSGTTLVRRRLCGS[Gla]LVTYLGELCLGN-OH (disulfide 6-11, 7-37, 20-49)
EC50 (Insulin receptor): 12 nM

CC(C)C[C@H](NC(=O)[C@H](Cc1ccccc1)NC(=O)[C@@H](N)CS)C(=O)NCC(=O)N[C@@H](CC(N)=O)C(=O)N[C@@H](CS)C(=O)N1CCC[C@H]1C(=O)N[C@@H](CC(=O)O)C(=O)N[C@@H](CO)C(=O)O (H-CFLGNCPDS-OH)
EC50 [2]: 1000 nM

CC[C@H](C)[C@@H]1NC(=O)[C@H](Cc2ccc(O)cc2)NC(=O)[C@H](CO)NC(=O)[C@H](CC(N)=O)NC(=O)[C@@H]2CCCN2C(=O)[C@H]([C@@H](C)CC)NC(=O)[C@H](CC(C(=O)O)C(=O)O)NC(=O)[C@H](CO)NC(=O)CNC(=O)[C@@H]2CSSC[C@@H]3NC(=O)[C@@H](NC(=O)[C@H](Cc4cnc[nH]4)NC(=O)[C@H](CC(C(=O)O)C(=O)O)NC(=O)[C@@H](NC(=O)[C@@H](NC(=O)CN)C(C)C)C(C)C)CSSC[C@H](NC(=O)[C@@H]4CCCN4C(=O)[C@H](CCCNC(=N)N)NC(=O)[C@H](Cc4cnc[nH]4)NC3=O)C(=O)N[C@@H](CO)C(=O)N[C@@H](CC(N)=O)C(=O)N[C@@H](C)C(=O)N[C@@H](CCC(=O)O)C(=O)N[C@@H](Cc3ccccc3)C(=O)N[C@@H](CCCCN)C(=O)N[C@@H](CCCCN)C(=O)N[C@@H](Cc3ccccc3)C(=O)N[C@@H](CSSC[C@H](C(=O)N[C@@H](Cc3ccccc3)C(=O)O)NC(=O)[C@H](CC(C)C)NC(=O)[C@H](CC(=O)O)NC1=O)C(=O)N[C@@H](CC(N)=O)C(=O)N[C@@H](CO)C(=O)N[C@@H](CC(=O)O)C(=O)N[C@@H]([C@@H](C)O)C(=O)N1CC(O)C[C@H]1C(=O)N[C@@H](CCCCN)C(=O)N[C@@H](Cc1ccc(O)cc1)C(=O)N[C@@H](CCCNC(=N)N)C(=O)N2 (some centres undefined)
EC50 (Insulin receptor): 12 nM

H-HSGFLLAWSGPRNRFVRF-OH
EC50 [1]: 1800 nM

CC[C@H](C)[C@@H]1NC(=O)[C@H](CC(=O)O)NC(=O)[C@H](CO)NC(=O)CNC(=O)[C@@H]2CSSC[C@@H]3NC(=O)[C@@H](NC(=O)[C@H](Cc4cnc[nH]4)NC(=O)[C@H](CC(C(=O)O)C(=O)O)NC(=O)[C@@H](NC(=O)[C@@H](NC(=O)CN)C(C)C)C(C)C)CSSC[C@H](NC(=O)[C@@H]4CCCN4C(=O)[C@H](CCCNC(=N)N)NC(=O)[C@H](Cc4cnc[nH]4)NC3=O)C(=O)N[C@@H](CO)C(=O)N[C@@H](CC(N)=O)C(=O)N[C@@H](C)C(=O)N[C@@H](CCC(=O)O)C(=O)N[C@@H](Cc3ccccc3)C(=O)N[C@@H](CCCCN)C(=O)N[C@@H](CCCCN)C(=O)N[C@@H](Cc3ccccc3)C(=O)N[C@@H](CSSC[C@H](C(=O)N[C@@H](Cc3ccccc3)C(=O)O)NC(=O)[C@H](CC(C)C)NC(=O)[C@H](CC(=O)O)NC(=O)[C@H](CCSC)NC(=O)[C@H](Cc3ccc(O)cc3)NC(=O)[C@H](CO)NC(=O)[C@H](CC(N)=O)NC(=O)[C@@H]3CCCN3C1=O)C(=O)N[C@@H](CC(N)=O)C(=O)N[C@@H](CO)C(=O)N[C@@H](CC(=O)O)C(=O)N[C@@H]([C@@H](C)O)C(=O)N1CC(O)C[C@H]1C(=O)N[C@@H](CCCCN)C(=O)N[C@@H](Cc1ccc(O)cc1)C(=O)N[C@@H](CCCNC(=N)N)C(=O)N2 (some centres undefined)
EC50 (Insulin receptor): 12 nM

H-GVV[Gla]HCCKRACSNA[Gla]FMQFCNSDTPWNRCGSQITDSYR[Gla]LCPH-OH (disulfide 6-11, 7-29, 20-41)
EC50 (Insulin receptor): 12 nM

NC(=O)C[C@H](NC(=O)CNC(=O)[C@@H]1CCCN1C(=O)[C@H](Cc1ccccc1)NC(=O)[C@@H](N)CS)C(=O)N[C@@H](CS)C(=O)N1CCC[C@H]1C(=O)N[C@@H](CC(=O)O)C(=O)N[C@@H](CO)C(N)=O (H-CFPGNCPDS-NH2)
EC50 (Vasopressin V1b receptor): 1000 nM | EC50 [3]: 1000 nM

CC[C@H](C)[C@H](NC(=O)[C@H](Cc1ccccc1)NC(=O)[C@H](CCC(=O)O)NC(=O)[C@H](CCCCN)NC(=O)[C@H](C)NC(=O)[C@H](C)NC(=O)[C@H](CCC(N)=O)NC(=O)CNC(=O)[C@H](CCC(=O)O)NC(=O)[C@H](CC(C)C)NC(=O)[C@H](Cc1ccc(O)cc1)NC(=O)[C@H](CO)NC(=O)[C@H](CO)NC(=O)[C@@H](NC(=O)[C@H](CC(=O)O)NC(=O)[C@H](CO)NC(=O)[C@@H](NC(=O)[C@H](Cc1ccccc1)NC(=O)[C@@H](NC(=O)CNC(=O)[C@H](CCC(=O)O)NC(=O)[C@H](C)NC(=O)[C@@H](N)Cc1cnc[nH]1)[C@@H](C)O)[C@@H](C)O)C(C)C)C(=O)N[C@@H](C)C(=O)N[C@@H](Cc1c[nH]c2ccccc12)C(=O)N[C@@H](CC(C)C)C(=O)N[C@H](C(=O)N[C@@H](CCCCN)C(=O)NCC(=O)N[C@@H](CCCNC(=N)N)C(=O)O)C(C)C
half-life [4]: 2 min

H-AWSGPRNRFVRF-OH
EC50 [1]: 1800 nM

CC(C)C[C@H](NC(=O)[C@H](Cc1ccccc1)NC(=O)[C@@H](N)CS)C(=O)NCC(=O)N[C@@H](CC(N)=O)C(=O)N[C@@H](CS)C(=O)N1CCC[C@H]1C(=O)N[C@@H](CC(=O)O)C(=O)N[C@@H](CO)C(N)=O (H-CFLGNCPDS-NH2)
EC50 [2]: 1000 nM

CC[C@H](C)[C@H](NC(=O)[C@H](CC(C)C)NC(=O)[C@@H](Cc1ccc(O)cc1)NC(=O)[C@H](CCC(N)=O)NC(=O)[C@H](CC(N)=O)NC(=O)[C@H](Cc1ccc(O)cc1)NC(=O)[C@H](CCC(N)=O)NC(=O)[C@H](CC(C)C)NC(=O)[C@@H](Cc1ccc(O)cc1)NC(=O)[C@@H](Cc1ccc(O)cc1)NC(=O)[C@H](CCC(=O)O)NC(=O)CN)C(=O)N[C@@H](CCCNC(=N)N)C(=O)N[C@H](Cc1ccc(O)cc1)C(=O)N[C@@H](CCCCN)C(=O)N[C@@H](CO)C(=O)N[C@@H](CC(N)=O)C(=O)O
EC50 [5]: 20 nM
